Experimental data reported in patent US5770623A, “Argine antagonists for inhibition of systemic hypotension associated with nitric oxide production or endothelial derived relaxing factor” (Board of Regents, The University of Texas System, priority 1995, dated 1998).
“Also recorded” adds a separate entry of the source. Read-outs that look alike come from different tables or passages of the source.

Assays:
[1] = tested on: nitroglycerin infused dogs; assay: Nitroglycerin-induced hypotension in dogs (Example 2); format: in vivo, dog
Protocol: Four conditioned mongrel dogs, 2 males and 2 females, weighing 28 to 30 kgs, were studied. Care of the animals were in accordance with the recommendation of the American Association for Accreditation of Laboratory Animals [DHEW(DHHS) publication no. (NIH) 78-23, revised, 1978]. On the day of the experiment, the dogs were fasted overnight. They were anesthetized with phenobarbital (10 mg/kg). They were then intubated orally with a #10 fr. endotracheal tube and ventilated with a Harvard pump ventilator at a rate of 12 breaths per minute and a tidal volume of 15 ml/kg. An arterial line was percutaneously placed in the femoral artery on the day of the experiment.
Mean (electronic) and phasic systemic arterial pressures (SAP) were continuously recorded on a Hewlett-Packard recording system (model 7758B) using strain gauge manometers (Hewlett-Packard model 1290A) which were connected to the arterial line. Heart rate (HR) was determined from an EKG tracing and continuously recorded on the Hewlett-Packard recording system. Oxyhemoglobin saturation (SaO2) was obtained using a pulse oximeter (BIOX 111, Boulder, Colo.). continuous time-series records of SAP, HR, and SaO2 were obtained using a Lab Master analog-to-digital convertor (16 channel, 12 bit, 30 kHz; Scientific Solutions, Inc.) sampling at 55 Hz and storing the 6 sec averages on a magnetic disk.
This was followed by a compensatory decrease in the HR with a return of the BP to baseline. The NMMA-induced bradycardia lasted 31 minutes. This response was not observed in animals which had been previously treated with TNF. In a subsequent experiment (FIG. 7a) the hypotensive response to TNF was especially severe, with a decrease in BP from 125 mm to 36 mmHg. […] This was associated with a decrease in the HR from 101 to 92 beats/minute. […] In a second control study nitroglycerin was infused at a rate of 28 μg/kg/minute, IV, to lower the blood pressure to the same level as that observed with tumor necrosis factor (FIG. 7c).

[2] = tested on: human internal mammary artery; assay: ACh-induced relaxation of human internal mammary artery; details: for effect on ACh-induced vasorelaxation: NE-preconstricted, FIG. 11
Description: FIG. 11 contains representative physiograph tracings which depict ACh-induced relaxation of NE-preconstricted rings prepared from rabbit aorta (upper panel) and human internal mammary artery (lower panel).

[3] = tested on: isolated guinea pig heart; assay: Histamine-induced nitrite release and coronary flow in isolated perfused guinea pig heart; details: for effect on coronary flow (vasodilation): histamine-elicited; for effect on EDRF/NO (nitrite) release: histamine-induced, FIG. 13
Protocol: Histamine was administered as a rapid bolus injection into the aorta and net nitrite release during the subsequent 2.5 minutes was determined.

[4] = tested on: endotoxin-treated dogs; format: in vivo, dog; design: blood pressure after L-arginine / change in SAP after L-arginine: dose or concentration left out as unconfirmed; details: for Cardiac Output / Heart Rate / Systemic Arterial Pressure / Systemic Vascular Resistance: Table 1, Study 1: Endotoxin-treated (n = 4)
Protocol: (§1) Animals: Studies were carried out on 12 conditioned mongrel dogs (9 males and 3 females) weighing 22-32 kg (avg=25.3 kg). Animal care was in accordance with the recommendations of the American Association for Accreditation of Laboratory Animal Care, and met all standards prescribed by the Guide for the Care and Use of Laboratory Animals (Guide for the Care and Use of Laboratory Animals (1978) Dept. of Health, Education and Welfare, Washington, D.C. (Publ. No. 78-23). Animal protocols were approved by The University of Texas Animal Welfare Committee. The dogs were fasted overnight prior to the day of experimentation. They were anesthetized with sodium pentobarbital (25 mg/kg I.v.). Dogs were then endotracheally intubated and ventilated with a piston-driven respirator (Harvard instruments) using room air at a tidal volume of 20 ml/kg and at a rate of 10 to 12 breaths per minute, adjusted to achieve a normal arterial pH and pCO2 (Instrumentation Laboratories 1L13012 pH/Blood Gas Analyzer). Catheters were placed percutaneously into the femoral and pulmonary arteries; In the latter, a flow-directed thermal-dilation catheter was used (Abbott Critical Care Systems).
(§2) Physiologic measurements: Mean SAP and heart rate were continuously monitored (Parametron 7048 Monitoring System, Roche) and stored on a magnetic disk using an analog-to-digital converter (Scientific Solutions, Inc.). Cardiac output (CO) was determined as the mean of six measurements by thermal-dilution. Systemic vascular resistance was calculated as (SAP X80)/CO and expressed as […].
(§3) Protocol: After the blood pressure and heart rate stabilized, endotoxin (40 ug/kg, in 10 ml of phosphate-buffered saline (PBS), pH 7.4) was infused i.v. over 2 minutes. This dose of endotoxin typically induces severe and often lethal cardiovascular collapse in the dog. Blood pressure was monitored, and when either SAP fell below 60 mmHg or a stable nadir in systemic arterial pressure (SAP) was maintained for 10 minutes, L-NMA was administered (20 mg/kg in 5 ml of PBS i.v. over 1 min.). In most experiments, L-arginine (400 mg/kg in 20 mi PBS) was administered ten minutes later by i.v. infusion over 2 minutes. In control experiments, dogs without prior exposure to endotoxin received L-NMA alone. To simulate the hypotension observed in dogs receiving endotoxin, one group of dogs received a continuous i.v. infusion of nitroglycerin (2 mg/ml) at a rate adjusted to maintain the SAP at 60-70 mm Hg. Nitroglycerin-treated dogs then received L-NMA (20 mg/kg) and 20 minutes later L-arginine was administered […].

[5] = tested on: nitroglycerin-treated dogs; assay: Nitroglycerin-induced hypotension in dogs (Example 4); format: in vivo, dog; details: for Cardiac Output / Heart Rate / Systemic Arterial Pressure / Systemic Vascular Resistance: Table 1, Study 2: Nitroglycerin-treated (n = 3)
Protocol: as §1, §2, §3
In an additional series of experiments, blood pressure was reduced to 65 mm Hg by continuous i.v. infusion of nitroglycerin, a hypotensive agent that forms NO by an L-arginine and NO synthetase-independent mechanism.

[6] = tested on: endotoxemic dogs; assay: Endotoxin-induced hypotension in dogs (Example 5); format: in vivo, dog
Protocol: Administration of ET to dogs was clearly more toxic and less predictable than TNF administration. […] Within 1.5 minutes the blood pressure increased by 33±2.5 mmHg.

Compound: N=C(N)NCCC[C@H](N)C(=O)O [L-arginine, reference compound]
- effect of L-arginine after NMMA ([1]; nitroglycerin infused dogs): reversed this modest effect
- effect on ACh-induced vasorelaxation [2]: restores relaxation
- effect on coronary flow (vasodilation) [3]: restored
- effect on EDRF/NO (nitrite) release [3]: restoration
- effect of L-arginine on L-NMA effect ([4]; 400 mg/kg L-arginine): reversed the effect of L-NMA and restored the endotoxin-induced hypotension
- blood pressure after L-arginine ([4]; 2 hours after L-NMA dosing, decline): < 45 mm Hg
- blood pressure after L-arginine ([4]; FIG. 24, L-arginine): 43 mm Hg
- change in SAP after L-arginine ([4]; FIG. 24, L-arginine): -77 mm Hg
- Cardiac Output [4]: 2.31 ± 0.43 L/min
- Heart Rate [4]: 116.7 ± 18.8 beats/min
- Systemic Arterial Pressure [4]: 52.7 ± 8.8 mmHg
- Systemic Vascular Resistance [4]: 1851 ± 171 dynes-sec/cm^5
- Cardiac Output [5]: 5.15 ± 1.08 L/min
- Heart Rate [5]: 148.7 ± 19.9 beats/min
- Systemic Arterial Pressure [5]: 56.9 ± 13 mmHg
- Systemic Vascular Resistance [5]: 1088.2 ± 491 dynes-sec/cm^5
- effect of L-arginine after NMMA ([6]; L-arginine 100 mg/kg): fall precipitously below the pre-NMMA level

Compound: CNC(=N)NCCC[C@H](N)C(=O)O [NMMA, N^G -methyl-L-arginine]
- blood pressure increase by NMMA ([1]; nitroglycerin 28 μg/kg/minute IV): 14 mm
- antagonism of nitroglycerin hypotension ([1]; similar level of hypotension): not antagonized
- effect on ACh-induced vasorelaxation [2]: attenuate ACh-induced vasorelaxation
- inhibition of EDRF/NO in vascular preparation ([2]; human): arginine reversible inhibitor of EDRF/NO
- effect on coronary flow (vasodilation) [3]: attenuated
- effect on EDRF/NO (nitrite) release [3]: inhibition
- effect on EDRF/NO (nitrite) release ([3]; listed as L-NMA): inhibits EDRF/NO release
- anti-hypotensive effect in endotoxemic dog ([4]; 20 mg/kg L-NMA): rapid and strong anti-hypotensive effect; also recorded: restores blood pressure to normal or near normal values
- increase in SAP by L-NMA ([4]; FIG. 24, 20 mg/kg, within 10 min): 73 mm Hg
- duration of maintained blood pressure, first dose ([4]; FIG. 24, first dose of L-NMA): 48 min
- SAP maintained after second dose ([4]; FIG. 24, for 2 hrs): greater than 100 mm Hg
- time to normalization / reversal of hypotension ([4]; L-NMA 20 mg/kg i.v.): ≤ 1.5 min
- increase in SVR by L-NMA ([4]; L-NMA, endotoxin-treated): 2060±338 dynes-sec/cm^5
- Cardiac Output [4]: 2.03 ± 0.32 L/min
- Heart Rate [4]: 123.3 ± 4.8 beats/min
- Systemic Arterial Pressure [4]: 107 ± 9.6 mmHg
- Systemic Vascular Resistance [4]: 4462 ± 552 dynes-sec/cm^5
- duration of normal blood pressure with additional dose ([4]; additional dose of L-NMA 20 mg/kg): at least 2 hours
- increase in SAP by L-NMA ([4]; endotoxemic dogs, L-NMA 20 mg/kg, n=4): 47.8±6.8 mmHg
- HR and CO after L-NMA ([4]; endotoxin-treated): unchanged
- pressor effect of doses greater than 20 mg/kg ([4]; limited dose response studies, versus 20 mg/kg): do not have a significantly greater pressor effect
- duration of normal blood pressure after single dose ([4]; single i.v. dose L-NMA 20 mg/kg): 30 to 60 min
- HR, CO or SVR after L-NMA ([5]; L-NMA 20 mg/kg): without significant alteration in HR, CO, or SVR
- Cardiac Output [5]: 3.85 ± 0.8 L/min
- Heart Rate [5]: 191.7 ± 35.0 beats/min
- Systemic Arterial Pressure [5]: 81.8 ± 3.5 mmHg
- Systemic Vascular Resistance [5]: 1851 ± 399 dynes-sec/cm^5
- increase in blood pressure (SAP) by L-NMA ([5]; nitroglycerin infusion, L-NMA 20 mg/kg, n=3): 17.1±5.0 mmHg
- blood pressure with readministration of NMMA ([6]; FIG. 24): maintained
- increase in blood pressure by NMMA ([6]; NMMA 5 mg/kg after ET 1 μg/kg): 33±2.5 mmHg
- time to blood pressure increase ([6]; NMMA 5 mg/kg after ET 1 μg/kg): ≤ 1.5 min
- increase in blood pressure by NMMA ([6]; lethal shock, 100 μg/ml endotoxin, NMMA 20 mg/kg): 65 mm
